Experimental data: paper PMC3621123 (Journal of medicinal chemistry, 2013)
Several values for one entry are separate records, joined by “and”; a condition that tells them apart may be missing. Equal entries are not always repeated. Where two headings read alike, the source gives them in different places.

Experiments:
BasE [1] = target: T1, BasE (Acinetobacter baumannii, UniProt A0A0D5YGP3); conditions: read-out: KD1, equilibrium dissociation constant of probe 14 for BasE; cited from earlier work
MbtA = MbtA (Mycobacterium tuberculosis, UniProt P71716); assay: Fluorescence polarization displacement of Fl-Sal-AMS 14 from MbtA; type: binding; conditions: for fold loss of affinity toward MbtA relative to 15: ratio of KD to lead compound 15
BasE [2] = target: T1, BasE; assay: biochemical; type: binding; conditions: for fold loss of affinity/potency toward BasE relative to 15: ratio of KD to lead compound 15; for Kd: KD (nM) BasE, FP displacement, 20 nM Fl-Sal-AMS 14, 200 nM BasE, pH 7.5, 25 °C; for fold increase in affinity toward BasE relative to 15: ratio of KD of lead compound 15 to compound
K. pneumoniae = conditions: ref unpublished results, Brian Beck, Laura Celia, ATCC; cited from earlier work
P. aeruginosa = conditions: ref unpublished results, Brian Beck, Laura Celia, ATCC; cited from earlier work
E. coli = conditions: ref unpublished results, Brian Beck, Laura Celia, ATCC; cited from earlier work
A. baumannii = conditions: ref unpublished results, Brian Beck, Laura Celia, ATCC; cited from earlier work

Chain of MbtA (P71716 whole entry): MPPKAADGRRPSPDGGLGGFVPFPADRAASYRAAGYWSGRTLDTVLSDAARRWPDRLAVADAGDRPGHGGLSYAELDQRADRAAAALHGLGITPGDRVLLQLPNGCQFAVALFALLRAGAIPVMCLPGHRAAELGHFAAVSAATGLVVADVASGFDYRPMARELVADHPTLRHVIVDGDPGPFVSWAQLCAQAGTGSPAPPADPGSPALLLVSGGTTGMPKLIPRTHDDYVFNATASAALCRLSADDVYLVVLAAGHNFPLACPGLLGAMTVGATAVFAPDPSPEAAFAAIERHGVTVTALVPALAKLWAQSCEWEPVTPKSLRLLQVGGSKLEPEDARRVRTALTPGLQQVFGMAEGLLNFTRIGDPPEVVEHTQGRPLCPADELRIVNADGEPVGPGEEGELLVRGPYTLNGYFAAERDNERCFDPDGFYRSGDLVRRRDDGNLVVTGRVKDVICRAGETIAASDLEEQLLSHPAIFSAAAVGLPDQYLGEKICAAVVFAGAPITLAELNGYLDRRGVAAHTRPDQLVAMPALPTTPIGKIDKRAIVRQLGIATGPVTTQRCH

22-O-{2-[2-(2-{[(fluorescein-5-yl)carbonyl]amino}ethoxy)ethoxy]ethoxy}-52-O-[N-(salicyl)sulfamoyl]adenosine [Compound 14]
Kd (BasE [1]): 84.3 nM

Cc1ccc(-c2cc(C(=O)O)c3cnn(Cc4ccncc4)c3n2)cc1 [Compound 39]
fold increase in affinity toward MbtA relative to 15 (MbtA; ratio of KD of lead compound 15 to compound): 2.6 fold

CCOC(=O)c1cc(-c2ccccc2)nc2c1cnn2Cc1ccncc1 [Compound 18, Ethyl 6-phenyl-1-(pyridin-4-ylmethyl)-1H-pyrazolo[3,4-b]pyridine-4-carboxylate]
fold loss of affinity/potency toward BasE relative to 15 (BasE [2]): 60 fold

COc1ccc(-c2cc(C(=O)O)c3cnn(Cc4ccncc4)c3n2)cc1 [Compound 62]
fold loss of affinity/potency toward BasE relative to 15 (BasE [2]): 2.2 fold

O=C(O)c1ccc(-c2cc(C(=O)O)c3cnn(Cc4ccncc4)c3n2)cc1 [Compound 58]
fold loss of affinity/potency toward BasE relative to 15 (BasE [2]): over 20 fold
fold loss of affinity toward MbtA relative to 15 (MbtA): 2 fold

O=C(O)c1cc(-c2ccc(OCc3ccccc3)cc2)nc2c1cnn2Cc1ccncc1 [Compound 67]
Kd (BasE [2]): 2 nM and < 10 nM
fold increase in affinity toward BasE relative to 15 (BasE [2]): 17 fold

O=C(O)c1cc(-c2ccc(O)cc2)nc2c1cnn2Cc1ccncc1 [Compound 42, 6-(4-Hydroxyphenyl)-1-(pyridin-4-ylmethyl)-1H-pyrazolo[3,4-b]pyridine-4-carboxylic acid]
Kd (BasE [2]): < 10 nM
fold increase in affinity toward BasE relative to 15 (BasE [2]): more than 4 fold

Nc1ncnc2c1ncn2[C@@H]1O[C@H](COS(=O)(=O)NC(=O)c2cccc(O)c2O)[C@@H](O)[C@H]1O [2,3-DHB-AMS, 5′-O-[N-(2,3-dihydroxybenzoyl)sulfamoyl]adenosine]
activity against K. pneumoniae (K. pneumoniae): no activity
activity against P. aeruginosa (P. aeruginosa): no activity
activity against E. coli (E. coli): no activity
activity against A. baumannii (A. baumannii): no activity

O=C(O)c1cc(-c2ccccc2)cc2c1cnn2Cc1ccncc1 [Compound 16, 6-Phenyl-1-(pyridin-4-ylmethyl)-1H-indazole-4-carboxylic acid]
fold loss of affinity/potency toward BasE relative to 15 (BasE [2]): 2 fold

O=C(O)c1cc(-c2cccs2)nc2c1cnn2Cc1ccncc1 [Compound 76]
fold loss of affinity/potency toward BasE relative to 15 (BasE [2]): ~ 10 fold

COc1ccc(COc2ccc(-c3cc(C(=O)O)c4cnn(Cc5ccncc5)c4n3)cc2)cc1 [Compound 68]
fold less potent than 67 toward BasE (BasE [2]; relative to p-benzyloxy 67): 21 fold

O=C(O)c1cc(/C=C/c2ccccc2)nc2c1cnn2Cc1ccncc1 [Compound 92]
fold loss of affinity/potency toward BasE relative to 15 (BasE [2]): ~ 10 fold

OCc1cc(-c2ccccc2)nc2c1cnn2Cc1ccncc1 [Compound 19, 4-Hydroxymethyl-6-phenyl-1-(pyridin-4-ylmethyl)-1H-pyrazolo[3,4-b]pyridine]
fold loss of affinity/potency toward BasE relative to 15 (BasE [2]): 2.8 fold and 3 fold

CC(=O)Nc1ccc(-c2cc(C(=O)O)c3cnn(Cc4ccncc4)c3n2)cc1 [Compound 54]
fold loss of affinity/potency toward BasE relative to 15 (BasE [2]): over 20 fold

O=C(O)c1cc(-c2ccccc2)cc2c1ccn2Cc1ccncc1 [Compound 17, 6-Phenyl-1-(pyridin-4-ylmethyl)-1H-indole-4-carboxylic acid]
fold loss of affinity/potency toward BasE relative to 15 (BasE [2]): 1400 fold

Nc1cc(-c2ccccc2)nc2c1cnn2Cc1ccncc1 [Compound 21, 6-Phenyl-1-(pyridin-4-ylmethyl)-1H-pyrazolo[3,4-b]pyridin-4-amine]
fold loss of affinity/potency toward BasE relative to 15 (BasE [2]): approximately 6 fold

O=C(c1ccccc1)c1ccc(-c2cc(C(=O)O)c3cnn(Cc4ccncc4)c3n2)cc1 [Compound 70]
Kd (BasE [2]): 19 nM
fold increase in affinity toward BasE relative to 15 (BasE [2]): 2 fold

O=C(O)c1cc(-c2ccco2)nc2c1cnn2Cc1ccncc1 [Compound 75]
fold loss of affinity/potency toward BasE relative to 15 (BasE [2]): ~ 10 fold

O=C(O)c1cc(-c2ccc(-c3ccccc3)cc2)nc2c1cnn2Cc1ccncc1 [Compound 72]
fold loss of affinity/potency toward BasE relative to 15 (BasE [2]): 3.5 fold

O=C(O)c1cc(-c2ccccc2O)nc2c1cnn2Cc1ccncc1 [Compound 40]
fold loss of affinity/potency toward BasE relative to 15 (BasE [2]): 7 fold

Cc1csc(-c2cc(C(=O)O)c3cnn(Cc4ccncc4)c3n2)c1 [Compound 78]
fold loss of affinity/potency toward BasE relative to 15 (BasE [2]): 2.4 fold

O=C(O)c1cc(-c2ccccc2)cc2nn(Cc3ccncc3)cc12 [Compound 99, 6-Phenyl-2-(pyridin-4-ylmethyl)-2H-indazole-4-carboxylic acid]
fold loss of affinity/potency toward BasE relative to 15 (BasE [2]): 1800 fold
fold loss of affinity toward MbtA relative to 15 (MbtA): 15.5 fold

Nc1ccc(-c2cc(C(=O)O)c3cnn(Cc4ccncc4)c3n2)cc1 [Compound 52]
fold loss of affinity/potency toward BasE relative to 15 (BasE [2]): 2.2 fold

O=C(O)c1cc(-c2cncc3ccccc23)nc2c1cnn2Cc1ccncc1 [Compound 86]
fold loss of affinity/potency toward BasE relative to 15 (BasE [2]): 215 fold

O=C(O)c1cc(=O)[nH]c2c1cnn2Cc1ccncc1 [Compound 98, 6-Oxo-1-(pyridin-4-ylmethyl)-6,7-dihydro-1H-pyrazolo[3,4-b]pyridine-4-carboxylic acid]
fold loss of affinity/potency toward BasE relative to 15 (BasE [2]): > 2800 fold

O=C(O)c1cc(-c2cccc(Cl)c2)nc2c1cnn2Cc1ccncc1 [Compound 45]
Kd (BasE [2]): < 10 nM
fold increase in affinity toward BasE relative to 15 (BasE [2]): more than 4 fold

Cc1ccsc1-c1cc(C(=O)O)c2cnn(Cc3ccncc3)c2n1 [Compound 77]
fold loss of affinity/potency toward BasE relative to 15 (BasE [2]): 9 fold

Cc1ccc(-c2cc(C(=O)O)c3cnn(Cc4ccncc4)c3n2)s1 [Compound 79]
Kd (BasE [2]): < 10 nM
fold increase in affinity toward BasE relative to 15 (BasE [2]): 5 fold

O=C(O)c1cc(-c2ccccc2)nc2c1cnn2Cc1ccc(O)cc1 [Compound 32, 1-(4-Hydroxybenzyl)-6-phenyl-1H-pyrazolo[3,4-b]pyridine-4-carboxylic acid]
fold loss of affinity/potency toward BasE relative to 15 (BasE [2]): 15 fold

C#Cc1cc(C(=O)O)c2cnn(Cc3ccncc3)c2n1 [Compound 93, 6-Ethynyl-1-(pyridin-4-ylmethyl)-1H-pyrazolo[3,4-b]pyridine-4-carboxylic acid]
fold loss of affinity/potency toward BasE relative to 15 (BasE [2]): ~ 55 fold

NC(=O)c1cc(-c2ccccc2)nc2c1cnn2Cc1ccncc1 [Compound 22, 6-Phenyl-1-(pyridin-4-ylmethyl)-1H-pyrazolo[3,4-b]pyridine-4-carboxamide]
fold loss of affinity/potency toward BasE relative to 15 (BasE [2]): 1.8 fold and 2 fold

O=C(O)c1cc(C#Cc2ccccc2)nc2c1cnn2Cc1ccncc1 [Compound 94, 6-(Phenylethynyl)-1-(pyridin-4-ylmethyl)-1H-pyrazolo[3,4-b]pyridine-4-carboxylic acid]
fold loss of affinity/potency toward BasE relative to 15 (BasE [2]): ~ 10 fold

C=Cc1cc(C(=O)O)c2cnn(Cc3ccncc3)c2n1 [Compound 91]
fold loss of affinity/potency toward BasE relative to 15 (BasE [2]): ~ 55 fold

O=C(O)c1cc(-c2ccc3[nH]ccc3c2)nc2c1cnn2Cc1ccncc1 [Compound 87]
fold loss of affinity/potency toward BasE relative to 15 (BasE [2]): 1.7 fold
